What was measured:
Type in all cases: in vivo
[1] = system: pigweed (Amaranthus retroflexus); assay: Test A preemergence, visual plant response rating; conditions: for Pigweed plant response rating: 125 g ai/ha, preemergence, 0 to 100 scale, 0 no effect, 100 complete control; for Pigweed plant response rating (0 to 100 scale): 500 g ai/ha Preemergence, approx. 10 days
In short: (§1)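 Ratings 0–100 (100 = complete control), visual, vs untreated controls at ~10 days. Application pre- or postemergence; solvent mixture with surfactant; loam/sand medium.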

[2] = system: foxtail, giant (giant foxtail, Setaria faberii); assay: Test A preemergence, visual plant response rating; conditions: for Foxtail, Giant plant response rating: 125 g ai/ha, preemergence, 0 to 100 scale, 0 no effect, 100 complete control; for Foxtail, Giant plant response rating (0 to 100 scale): 500 g ai/ha Preemergence, approx. 10 days
In short: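 Ratings use a 0–100 visual scale (100 = complete control) against untreated controls, scored about 10 days after greenhouse treatment. Test chemicals were formulated in surfactant-containing non-phytotoxic solvent and applied either as soil spray after planting (preemergence) or onto one- to two-leaf, 2–10 cm plants (postemergence).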

[3] = system: kochia (Kochia scoparia); assay: Test A preemergence, visual plant response rating; conditions: for Kochia plant response rating: 125 g ai/ha, preemergence, 0 to 100 scale, 0 no effect, 100 complete control; for Kochia plant response rating (0 to 100 scale): 500 g ai/ha Preemergence, approx. 10 days
In short: as §1

[4] = system: Italian ryegrass (Lolium multiflorum); assay: Test A preemergence, visual plant response rating; conditions: for Ryegrass, Italian plant response rating (0 to 100 scale): 500 g ai/ha Preemergence, approx. 10 days; for Ryegrass, Italian plant response rating: 125 g ai/ha, preemergence, 0 to 100 scale, 0 no effect, 100 complete control
In short: as §1

[5] = system: ragweed (common ragweed, Ambrosia elatior); assay: Test A preemergence, visual plant response rating; conditions: for Ragweed plant response rating: 125 g ai/ha, preemergence, 0 to 100 scale, 0 no effect, 100 complete control; for Ragweed plant response rating (0 to 100 scale): 500 g ai/ha Preemergence, approx. 10 days
In short: as §1

[6] = system: barnyardgrass (Echinochloa crus-galli); assay: Test A preemergence, visual plant response rating; conditions: for Barnyardgrass plant response rating: 125 g ai/ha, preemergence, 0 to 100 scale, 0 no effect, 100 complete control; for Barnyardgrass plant response rating (0 to 100 scale): 500 g ai/ha Preemergence, approx. 10 days
In short: as §1

[7] = system: corn (Zea mays); assay: Test A postemergence, visual plant response rating; conditions: for Corn plant response rating (0 to 100 scale): 500 g ai/ha, postemergence, 0 is no effect, 100 is complete control; for Corn plant response rating: Postemergence, 125 g ai/ha, 0 to 100 scale (0 no effect, 100 complete control)
In short: as §1

[8] = system: galium (catchweed bedstraw, Galium aparine); assay: Test A postemergence, visual plant response rating; conditions: for Galium plant response rating (0 to 100 scale): 500 g ai/ha, postemergence, 0 is no effect, 100 is complete control; for Galium plant response rating: Postemergence, 125 g ai/ha, 0 to 100 scale (0 no effect, 100 complete control)
In short: as §1

[9] = system: blackgrass (Alopecurus myosuroides); assay: Test A postemergence, visual plant response rating; conditions: for Blackgrass plant response rating (0 to 100 scale): 500 g ai/ha, postemergence, 0 is no effect, 100 is complete control; for Blackgrass plant response rating: Postemergence, 125 g ai/ha, 0 to 100 scale (0 no effect, 100 complete control)
In short: as §1

[10] = system: wheat (Triticum aestivum); assay: Test A postemergence, visual plant response rating; conditions: for Wheat plant response rating (0 to 100 scale): 500 g ai/ha, postemergence, 0 is no effect, 100 is complete control; for Wheat plant response rating: Postemergence, 125 g ai/ha, 0 to 100 scale (0 no effect, 100 complete control)
In short: as §1

[11] = system: pigweed (Amaranthus retroflexus); assay: Test A postemergence, visual plant response rating; conditions: for Pigweed plant response rating (0 to 100 scale): 500 g ai/ha, postemergence, 0 is no effect, 100 is complete control; for Pigweed plant response rating: Postemergence, 125 g ai/ha, 0 to 100 scale (0 no effect, 100 complete control)
In short: as §1

[12] = system: foxtail, giant (giant foxtail, Setaria faberii); assay: Test A postemergence, visual plant response rating; conditions: for Foxtail, Giant plant response rating (0 to 100 scale): 500 g ai/ha, postemergence, 0 is no effect, 100 is complete control; for Foxtail, Giant plant response rating: Postemergence, 125 g ai/ha, 0 to 100 scale (0 no effect, 100 complete control)
In short: as §1

[13] = system: kochia (Kochia scoparia); assay: Test A postemergence, visual plant response rating; conditions: for Kochia plant response rating (0 to 100 scale): 500 g ai/ha, postemergence, 0 is no effect, 100 is complete control; for Kochia plant response rating: Postemergence, 125 g ai/ha, 0 to 100 scale (0 no effect, 100 complete control)
In short: as §1

[14] = system: Italian ryegrass (Lolium multiflorum); assay: Test A postemergence, visual plant response rating; conditions: for Ryegrass, Italian plant response rating (0 to 100 scale): 500 g ai/ha, postemergence, 0 is no effect, 100 is complete control; for Ryegrass, Italian plant response rating: Postemergence, 125 g ai/ha, 0 to 100 scale (0 no effect, 100 complete control)
In short: as §1

[15] = system: ragweed (common ragweed, Ambrosia elatior); assay: Test A postemergence, visual plant response rating; conditions: for Ragweed plant response rating (0 to 100 scale): 500 g ai/ha, postemergence, 0 is no effect, 100 is complete control; for Ragweed plant response rating: Postemergence, 125 g ai/ha, 0 to 100 scale (0 no effect, 100 complete control)
In short: as §1

[16] = system: barnyardgrass (Echinochloa crus-galli); assay: Test A postemergence, visual plant response rating; conditions: for Barnyardgrass plant response rating (0 to 100 scale): 500 g ai/ha, postemergence, 0 is no effect, 100 is complete control; for Barnyardgrass plant response rating: Postemergence, 125 g ai/ha, 0 to 100 scale (0 no effect, 100 complete control)
In short: as §1

[17] = system: sedge, umbrella (small-flower umbrella sedge, Cyperus difformis); assay: Test B flooded paddy test, visual plant response rating; conditions: 250 g ai/ha, Flood, applied to paddy water, 2-leaf stage, evaluated after 13 to 15 days
In short: (§2)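 Compounds added straight into paddy water of pots flooded to 3 cm, with 2-leaf-stage plants of the four species; water level held throughout.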

[18] = system: ducksalad (Heteranhera limosa); assay: as above; conditions: 250 g ai/ha, Flood, applied to paddy water, 2-leaf stage, evaluated after 13 to 15 days
In short: as §2

[19] = system: rice (Oryza sativa); assay: as above; conditions: 250 g ai/ha, Flood, applied to paddy water, 2-leaf stage, evaluated after 13 to 15 days
In short: as §2

[20] = system: barnyardgrass (Echinochloa crus-galli); assay: as above; conditions: 250 g ai/ha, Flood, applied to paddy water, 2-leaf stage, evaluated after 13 to 15 days
In short: as §2

SMILES	Pigweed plant response rating [1]	Pigweed plant response rating (0 to 100 scale) [1]	Foxtail, Giant plant response rating [2]	Foxtail, Giant plant response rating (0 to 100 scale) [2]	Kochia plant response rating [3]	Kochia plant response rating (0 to 100 scale) [3]	Ryegrass, Italian plant response rating (0 to 100 scale) [4]	Ragweed plant response rating [5]	Ragweed plant response rating (0 to 100 scale) [5]	Barnyardgrass plant response rating [6]	Barnyardgrass plant response rating (0 to 100 scale) [6]	Corn plant response rating (0 to 100 scale) [7]	Corn plant response rating [7]	Galium plant response rating (0 to 100 scale) [8]	Galium plant response rating [8]	Blackgrass plant response rating (0 to 100 scale) [9]	Blackgrass plant response rating [9]	Wheat plant response rating (0 to 100 scale) [10]	Wheat plant response rating [10]	Pigweed plant response rating (0 to 100 scale) [11]	also measured
CON=C(c1cccc(C2CC2)c1)c1c(O)c(C)nn(C)c1=O [Compound 123]	40	60	10	40	10	50	90	50	80	0	50	0	0	80	70	30	20	10	0	80	Pigweed plant response rating [11]: 70; Foxtail, Giant plant response rating (0 to 100 scale) [12]: 60; Foxtail, Giant plant response rating [12]: 20; Kochia plant response rating (0 to 100 scale) [13]: 70; Kochia plant response rating [13]: 50; Ryegrass, Italian plant response rating (0 to 100 scale) [14]: 80; Ryegrass, Italian plant response rating [14]: 60; Ragweed plant response rating (0 to 100 scale) [15]: 90; Ragweed plant response rating [15]: 80; Barnyardgrass plant response rating (0 to 100 scale) [16]: 40; Barnyardgrass plant response rating [16]: 0; Plant response rating, Sedge, Umbrella (0 to 100 scale, 0 is no effect, 100 is complete control) [17]: 0; Plant response rating, Ducksalad (0 to 100 scale, 0 is no effect, 100 is complete control) [18]: 0; Plant response rating, Rice (0 to 100 scale, 0 is no effect, 100 is complete control) [19]: 0; Plant response rating, Barnyardgrass (0 to 100 scale, 0 is no effect, 100 is complete control) [20]: 0
CO/N=C(\c1ccc(F)cc1C)c1c(O)c(C)nn(C)c1=O [Compound 72]	0	20	0	10	0	0	40	0	20	0	0	20	0	70	70	0	20	20	0	80	Ryegrass, Italian plant response rating [4]: 0; Pigweed plant response rating [11]: 30; Foxtail, Giant plant response rating (0 to 100 scale) [12]: 10; Foxtail, Giant plant response rating [12]: 0; Kochia plant response rating (0 to 100 scale) [13]: 60; Kochia plant response rating [13]: 20; Ryegrass, Italian plant response rating (0 to 100 scale) [14]: 40; Ryegrass, Italian plant response rating [14]: 0; Ragweed plant response rating (0 to 100 scale) [15]: 70; Ragweed plant response rating [15]: 40; Barnyardgrass plant response rating (0 to 100 scale) [16]: 0; Barnyardgrass plant response rating [16]: 0; Plant response rating, Sedge, Umbrella (0 to 100 scale, 0 is no effect, 100 is complete control) [17]: 0; Plant response rating, Ducksalad (0 to 100 scale, 0 is no effect, 100 is complete control) [18]: 0; Plant response rating, Rice (0 to 100 scale, 0 is no effect, 100 is complete control) [19]: 0; Plant response rating, Barnyardgrass (0 to 100 scale, 0 is no effect, 100 is complete control) [20]: 0
CON=C(c1ccccc1C1CC1)c1c(O)c(C)nn(C)c1=O [Compound 104]	70	70	80	100	20	70	100	50	80	60	80	30	30	100	90	90	80	80	40	90	Ryegrass, Italian plant response rating [4]: 90; Pigweed plant response rating [11]: 70; Foxtail, Giant plant response rating (0 to 100 scale) [12]: 80; Foxtail, Giant plant response rating [12]: 70; Kochia plant response rating (0 to 100 scale) [13]: 80; Kochia plant response rating [13]: 70; Ryegrass, Italian plant response rating (0 to 100 scale) [14]: 100; Ryegrass, Italian plant response rating [14]: 90; Ragweed plant response rating (0 to 100 scale) [15]: 90; Ragweed plant response rating [15]: 80; Barnyardgrass plant response rating (0 to 100 scale) [16]: 80; Barnyardgrass plant response rating [16]: 40; Plant response rating, Sedge, Umbrella (0 to 100 scale, 0 is no effect, 100 is complete control) [17]: 0; Plant response rating, Ducksalad (0 to 100 scale, 0 is no effect, 100 is complete control) [18]: 0; Plant response rating, Rice (0 to 100 scale, 0 is no effect, 100 is complete control) [19]: 0; Plant response rating, Barnyardgrass (0 to 100 scale, 0 is no effect, 100 is complete control) [20]: 0
